Data published in PubChem BioAssay (NCI).
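Exposure lasted 48 hours, with cells grown in 96-well plates and compounds tested at five concentrations. Abbreviation: GI50, concentration required for 50% inhibition of growth. TGI: concentration producing complete growth inhibition.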

What was measured:
Assay in all cases: growth of human tumour cells (NCI), 48 h
OVCAR-4 ovarian = system: OVCAR-4 ovarian
MOLT-4 leukemia = system: MOLT-4 leukemia
786-0 renal = system: 786-0 renal
SR leukemia = system: SR leukemia
EKVX NSCLC = system: EKVX NSCLC
HS 578T breast = system: HS 578T breast
CCRF-CEM leukemia = system: CCRF-CEM leukemia
T-47D breast = system: T-47D breast
SK-MEL-28 melanoma = system: SK-MEL-28 melanoma
COLO 205 colon = system: COLO 205 colon
SNB-19 CNS = system: SNB-19 CNS
MALME-3M melanoma = system: MALME-3M melanoma
K-562 leukemia = system: K-562 leukemia

SMILES	TGI (OVCAR-4 ovarian) [µM]	TGI (MOLT-4 leukemia) [µM]	TGI (786-0 renal) [µM]	TGI (SR leukemia) [µM]	TGI (EKVX NSCLC) [µM]	TGI (HS 578T breast) [µM]	TGI (CCRF-CEM leukemia) [µM]	TGI (T-47D breast) [µM]	TGI (SK-MEL-28 melanoma) [µM]	TGI (COLO 205 colon) [µM]	TGI (SNB-19 CNS) [µM]	TGI (MALME-3M melanoma) [µM]	TGI (K-562 leukemia) [µM]	GI50 (OVCAR-4 ovarian) [µM]	GI50 (HS 578T breast) [µM]	GI50 (SK-MEL-28 melanoma) [µM]
Cc1nc2c(sc3nc4ccccc4n32)c(=O)[nH]1	> 100	> 100	> 100	> 100	> 100	> 100	> 100	> 100	> 100	> 100	> 100	> 100	–	–	–	–
O=C(CSCC(=O)N/N=C\c1ccc(-c2ccccc2)cc1)N/N=C\c1ccc(-c2ccccc2)cc1	46.5	> 100	> 100	26.8	> 100	49.8	–	> 100	> 100	> 100	> 100	64.1	> 100	–	–	–
COC(=O)/C=c1/c2ccccc2n2nc3ccccc3c12	> 100	35.3	> 100	17.1	> 100	> 100	> 100	> 100	> 100	> 100	> 100	> 100	> 100	–	–	–
COc1ccc(CCNC(=O)Cc2cc(OC)c(OC)cc2CO)cc1OC	> 100	> 100	> 100	> 100	> 100	> 100	> 100	> 100	> 100	> 100	–	–	> 100	–	–	–
c1ccc(CSc2nc(N3CCOCC3)c3cn[nH]c3n2)cc1	> 100	> 100	> 100	63.6	48	39.3	36	68.5	43.4	30.4	87.4	31.8	> 100	–	–	–
Cc1cccc(NC(=S)Nc2ccccc2Cl)n1	57.8	> 100	> 100	> 100	67.8	> 100	> 100	> 100	> 100	> 100	97.5	88.3	> 100	–	–	–
O=[N+]([O-])c1ccc2nc(/C=C(\O)c3ccc(F)cc3)c(/C=C(\O)c3ccc(F)cc3)nc2c1	> 100	43.5	39.7	40.9	> 100	> 100	26.4	> 100	> 100	> 100	> 100	> 100	> 100	–	–	–
CN(C)Cc1cc(N=Nc2ccccc2)cc(CN(C)C)c1O	> 100	> 100	> 100	> 100	> 100	> 100	94.3	> 100	> 100	> 100	> 100	> 100	> 100	–	–	–
CCN(CC)C(=S)SS(=O)(=O)c1ccc([N+](=O)[O-])cc1	> 100	–	32.4	54.5	> 100	> 100	–	> 100	38.3	> 100	> 100	37.9	> 100	45.5	> 100	19
O=[N+]([O-])c1cccnc1NCC1(CO)CC(Cc2ccccc2)C1 (configuration not stated)	> 100	> 100	> 100	> 100	> 100	> 100	> 100	> 100	> 100	> 100	–	> 100	> 100	–	–	–
CC[C@H]1OC([C@H](O)C/C=C\C#C[Si](C)(C)C)C/C=C\C[C@H]1O[Si](C)(C)C(C)(C)C (some centres not stated)	> 100	> 100	> 100	> 100	> 100	> 100	> 100	> 100	> 100	> 100	> 100	> 100	> 100	–	–	–
CCC1C(c2cc(OC)c(OC)c(OC)c2)c2cc3c(cc2OC1N1CCOCC1)OCO3 (configuration not stated)	14.6	–	28.8	> 100	54.1	28.9	–	61.8	–	22.4	25	52.6	–	–	–	–
O=C(CC(C(=O)c1ccoc1)c1ccco1)c1ccco1 (configuration not stated)	> 100	> 100	> 100	> 100	> 100	> 100	> 100	> 100	> 100	> 100	–	–	> 100	–	–	–
COc1cccc(NC(=O)CC(=O)N2N=C(C)C(N=Nc3ccc(S(=O)(=O)c4ccc(N=NC5C(=O)N(C(=O)CC(=O)Nc6cccc(OC)c6)N=C5C)cc4)cc3)C2=O)c1 (configuration not stated)	> 100	> 100	> 100	> 100	> 100	> 100	> 100	> 100	> 100	> 100	> 100	> 100	> 100	–	–	–
CC1(C)CC(=O)c2c(nc3ccc4ccccc4c3c2-c2ccc(NC(=O)CCC(=O)Nc3ccc(-c4c5c(nc6ccc7ccccc7c46)CC(C)(C)CC5=O)cc3)cc2)C1	–	> 100	> 100	> 100	> 100	> 100	> 100	> 100	> 100	> 100	> 100	–	> 100	–	–	–
COCc1cc2c(cc1/C=C/[N+](=O)[O-])OCO2	–	> 100	33.5	> 100	36.5	44.3	37.7	41.8	25.2	38.4	–	–	> 100	–	–	–
Cc1ccc(Nc2cc(=O)[nH]c(=S)[nH]2)cc1	> 100	> 100	> 100	> 100	> 100	> 100	> 100	> 100	–	> 100	> 100	> 100	> 100	–	–	–
COC(=O)c1c(C)cccc1/C=C1\Cc2cc(C)cc(C)c2C1=O	51.4	> 100	> 100	> 100	> 100	69.7	> 100	> 100	> 100	–	> 100	> 100	> 100	–	–	–

SMILES	TGI (OVCAR-4 ovarian) [µM]	TGI (MOLT-4 leukemia) [µM]	TGI (786-0 renal) [µM]	TGI (SR leukemia) [µM]	TGI (EKVX NSCLC) [µM]	TGI (HS 578T breast) [µM]	TGI (CCRF-CEM leukemia) [µM]	TGI (T-47D breast) [µM]	TGI (SK-MEL-28 melanoma) [µM]	TGI (COLO 205 colon) [µM]	TGI (SNB-19 CNS) [µM]	TGI (MALME-3M melanoma) [µM]	TGI (K-562 leukemia) [µM]	GI50 (OVCAR-4 ovarian) [µM]	GI50 (HS 578T breast) [µM]	GI50 (SK-MEL-28 melanoma) [µM]
CC(=O)Nc1ccc2[nH]c(-c3cccc(F)c3)cc(=O)c2c1	> 29.5	> 100	> 100	> 100	> 100	> 28.2	> 100	> 100	> 100	> 65.5	> 100	> 100	–	–	–	–
COCCOCCOC1=C(Cl)C(=O)c2c(O)ccc(O)c2C1=O	4.36	2.37	2.61	3.04	21.7	7.9	45.1	6.64	5.12	2.45	27.1	3.34	–	–	–	–
C=CC[C@H]1[C@H](O[Si](C)(C)C(C)(C)C)C=CC(=O)[C@@H]1CC(=O)N(Cc1ccccc1)Cc1ccccc1	> 100	> 100	84.9	> 100	> 100	> 100	> 100	44.2	> 100	25.6	> 100	–	> 100	–	–	–
C1=C\CCCCN2C[C@H]3CCCC/C=C\CCCCN4CC[C@@H]([C@H](CCCCCC/1)C4)[C@H](C3)C2	6.11	4.79	3.16	> 19.8	22.5	4.34	–	4.6	3.89	4.03	5.3	3.56	–	–	–	–
CC1(C)Oc2ccc3c(=O)cc(-c4ccc(F)cc4)oc3c2C1C(=O)O (configuration not stated)	–	> 100	> 100	> 100	> 100	> 100	> 100	> 100	–	> 100	–	> 100	> 100	–	–	–
COc1ccccc1N1CCN(Cn2c(=O)oc3cccnc32)CC1	> 100	> 100	> 100	> 100	> 100	> 100	> 100	> 100	> 100	–	> 100	> 100	> 100	–	–	–
COc1cc2c(cc1OC)CC(N=[N+]=[N-])c1cc(OC)c(OC)cc1/C=C\2 (configuration not stated)	> 100	> 100	> 100	> 100	> 100	> 100	–	> 100	> 100	> 100	> 100	–	> 100	–	–	–
S=C1N=C(Cl)C2(NN1)c1ccccc1-c1ccccc12	> 10	> 10	> 10	> 10	> 10	> 10	> 10	> 10	> 10	> 10	–	> 10	> 10	–	–	–
Cc1cn(Cc2ccccc2CCl)c(=O)[nH]c1=O	> 100	> 100	30.2	–	33.2	56.6	> 100	44.8	45.5	45.7	25.9	57	56	–	–	–
COc1ccc(-c2cc(-c3cc(OC)c(OC)c(OC)c3)cc(-c3cc4ccccc4oc3=O)n2)cc1	21.4	> 100	5.34	> 100	31.5	7.14	> 100	26	–	> 100	37.7	23.9	> 100	–	–	–
CCOC(=O)CCC(NC(=O)c1ccc(N2CCN(c3c(C)nc(N)nc3N)CC2)cc1)C(=O)OCC (configuration not stated)	> 100	> 100	> 100	–	> 100	> 100	4.9	> 100	> 47.4	> 100	> 24.7	> 100	0.844	–	–	–
Brc1ccc2[nH]cc(-c3nc(-c4c[nH]c5ccccc45)cs3)c2c1	23.1	–	8.55	> 100	12.3	> 47.9	> 26.2	31.7	20.9	2.76	12.2	9.39	> 20.1	–	–	–
COc1cccc(-c2cc(=O)c3c(C)ccnc3[nH]2)c1	> 100	> 100	> 100	0.0396	> 100	> 100	0.218	> 100	–	0.0854	> 100	> 100	0.397	–	–	–
CC(C)=CCC/C(C)=C/CC/C(C)=C/CC/C(C)=C/CC/C(C)=C\CC/C(C)=C/CC/C(C)=C/CC/C(C)=C/Cc1cc(O)ccc1O	7.4	8.34	4.09	1.8	8.83	8.93	> 34.9	50.1	> 100	> 100	> 43.6	–	26.4	–	–	–
CCC(=O)O[C@H]1CC[C@H]2[C@@H]3CCC4=C/C(=N/NC(=O)c5cccc6c(=O)c7ccccc7[nH]c56)CC[C@]4(C)[C@H]3CC[C@]12C	> 25	> 25	10.3	> 25	> 25	> 25	> 25	> 25	> 25	> 25	> 25	–	> 25	–	–	–
Cc1cc2c(c(C=NCc3ccccc3)c1)OC1(C=C2)Oc2ccccc2C(=O)N1C (configuration not stated)	69.9	36.5	> 100	49.9	57.6	63.6	36.3	45.9	> 100	39.8	> 100	–	> 100	–	–	–
C=CC[C@H](C)CCC(=O)N1[C@H]2CC3CC[C@@]2(CS1(=O)=O)C3(C)C	> 100	68.1	> 100	> 100	> 100	> 100	59.2	> 100	> 100	> 100	> 100	> 100	–	–	–	–
